Experimental findings from patent US10456379B2, “Imidazole-based antimicrobial agents” (priority 2014, dated 2019) are described below.

Converted amounts (≈) assume the structure as drawn. Where two headings read alike, the source gives them in different places.

Data set [1] concerns vancomycin-resistant Enterococcus faecium (ATCC51559). Nature of the data set: microbe, parasite or virus in culture. As to conditions: ATCC51559; vancomycin-resistant Enterococcus faecium; read-out: Antibacterial activity, VREFm (vancomycin-resistant EFm), MIC class. The class given is cell-based.
Data set [2] relates to Staphylococcus epidermidis (PCI 1200, ATCC12228). The experiment in a line: Broth microdilution MIC assay, Staphylococcus epidermidis. Type of data set: cell-based. As to conditions: read-out: Antibacterial activity, SE (Staphylococcus epidermidis), MIC class. (In general: In broth dilution the organism is exposed to a series of concentrations in liquid medium.)
For data set [3], the system named is vancomycin-resistant Enterococcus faecalis (ATCC51575). Nature of the data set: microbe, parasite or virus in culture. The class given is cell-based. The following applies: ATCC51575; vancomycin-resistant Enterococcus faecalis; read-out: Antibacterial activity, VREFs (vancomycin-resistant EFs), MIC class.
Data set [4] concerns Enterococcus faecalis (ATCC29212). The experiment in a line: Broth microdilution MIC assay, Enterococcus faecalis. The class given is cell-based. As to conditions: read-out: Antibacterial activity, EFs (Enterococcus faecalis), MIC class.
Data set [5] has as its system Staphylococcus aureus MRSA (COL). The experiment in a line: Broth microdilution MIC assay, Staphylococcus aureus MRSA (COL). The class given is cell-based. The following applies: for Antibacterial activity Staphylococcus aureus (MRSA): MIC class score, MIC100, broth microdilution, COL strain.
Data set [6] has as its system Streptococcus pneumoniae (Chester, ATCC49619). Nature of the data set: Broth microdilution MIC assay, Streptococcus pneumoniae. Type of data set: cell-based. As to conditions: for Antibacterial activity Streptococcus pneumoniae: MIC class score, MIC100, broth microdilution; for MIC: Streptococcus pneumoniae, ATCC49619, read-out: Antibacterial activity, SP (Streptococcus pneumoniae), MIC class.

Data set [7] relates to Staphylococcus aureus MSSA (Newman). The experiment in a line: Broth microdilution MIC assay, Staphylococcus aureus MSSA (Newman). Type of data set: cell-based. The following applies: for Antibacterial activity Staphylococcus aureus (MSSA): MIC class score, MIC100, broth microdilution, Newman strain; for MIC: Staphylococcus aureus.
The test system of data set [8] is Mycobacterium smegmatis (mc(2)155). The experiment in a line: Broth microdilution MIC assay, Mycobacterium smegmatis.
[9] abbreviates: read-out: Antibacterial activity, MSSA (Staphylococcus aureus MSSA), MIC class.
Setting [10] is: read-out: Antibacterial activity Staphylococcus aureus (MSSA).

Regarding `Cc1[nH]c(-c2ccc(-c3ccc(OC(F)(F)F)cc3)o2)nc1-c1ccc(Cl)cc1` [compound 48], the MIC fell in the range of 20 to 50 µg/mL (≈ 47.8 to 119 µM) in data set [1], 11 to 20 µg/mL (≈ 26.3 to 47.8 µM) in data set [2], 20 to 50 µg/mL (≈ 47.8 to 119 µM) in data set [3] and 20 to 50 µg/mL (≈ 47.8 to 119 µM) in data set [4].
Consider `Cc1[nH]c(-c2ccc(-c3ccc(OC(F)(F)F)c(Cl)c3)o2)nc1-c1ccc(Cl)cc1` [compound 50], for which, in data set [5] (Staphylococcus aureus, MRSA, read-out: Antibacterial activity, MRSA (Staphylococcus aureus MRSA), MIC class), the MIC fell in the range of 11 to 20 µg/mL (≈ 24.3 to 44.1 µM). Also, in data set [6], the “Antibacterial activity Streptococcus pneumoniae” value was 3 (MIC100 of 2-5 μg/ml) and the MIC is 2 to 5 µg/mL (≈ 4.41 to 11 µM).
Consider `FC(F)(F)c1ccccc1-c1ccc(-c2nc(Cl)c(-c3ccccc3)[nH]2)o1` [compound 65], for which the MIC in data set [6] is below 1 µg/mL; in data set [7] (setting [9]), 11 to 20 µg/mL (≈ 28.3 to 51.4 µM). In addition, the “Antibacterial activity Staphylococcus aureus (MSSA)” value in data set [7] is given as 2 (MIC100 of 11-20 μg/ml).
In the case of `FC(F)(F)Oc1ccccc1-c1ccc(-c2nc(-c3ccccc3Cl)c[nH]2)o1` [compound 67], the MIC lay in the range of 11 to 20 µg/mL (≈ 27.2 to 49.4 µM) in data set [2] and 2 to 5 µg/mL (≈ 4.94 to 12.4 µM) in data set [6].
For the molecule `Cc1ccccc1-c1cnc(-c2ccc(-c3ccccc3C(F)(F)F)o2)[nH]1` [compound 69], the MIC is 20 to 50 µg/mL (≈ 54.3 to 136 µM) in data set [1], below 1 µg/mL in data set [6] and 11 to 20 µg/mL (≈ 29.9 to 54.3 µM) in data set [7] (setting [9]). The “Antibacterial activity, MS (Mycobacterium smegmatis), MIC class” value in data set [8] is 2 (MIC100 of 11-20 μg/ml). Moreover, the “Antibacterial activity Staphylococcus aureus (MRSA)” value in data set [5] was 2 (MIC100 of 11-20 μg/ml).
With `FC(F)(F)c1ccccc1-c1ccc(-c2ncc(-c3ccccc3)[nH]2)o1` [compound 75], in data set [6], the “Antibacterial activity Streptococcus pneumoniae” value is reported as 3 (MIC100 of 2-5 μg/ml). For the same molecule, in data set [7] (setting [10]), the MIC lay within 11 to 20 µg/mL (≈ 31 to 56.4 µM).
As to `Cc1nc(-c2ccc(-c3ccccc3F)o2)[nH]c1-c1ccc(O)cc1` [compound 77], the “Antibacterial activity Streptococcus pneumoniae” value in data set [6] is given as 3 (MIC100 of 2-5 μg/ml). Besides, the “Antibacterial activity Staphylococcus aureus (MSSA)” value in data set [7] is 3 (MIC100 of 3-10 μg/ml).
Turning to `CCCc1nc(-c2ccc(-c3ccc(C(F)(F)F)cc3)o2)[nH]c1C` [compound 104], the “Antibacterial activity Staphylococcus aureus (MRSA)” value in data set [5] was 3 (MIC100 of 3-10 μg/ml).
Still for that read-out and setting: next, `CCCc1[nH]c(-c2ccc(-c3cccc4[nH]ccc34)o2)nc1C` [compound 108]: 2 (MIC100 of 11-20 μg/ml).
Still for that read-out and setting: next, `CCCc1[nH]c(-c2ccc(-c3ccc(Cl)cc3Cl)o2)nc1C` [compound 109]: 2 (MIC100 of 11-20 μg/ml); `CCCc1[nH]c(-c2ccc(-c3ccc(O)cc3C(F)(F)F)o2)nc1C` [compound 110]: 3 (MIC100 of 3-10 μg/ml).
Take `Cc1nc(-c2ccc(-c3ccc(O)cc3F)o2)[nH]c1-c1ccc(O)cc1` [compound 120]: the “Antibacterial activity Staphylococcus aureus (MSSA)” value in data set [7] was 2 (MIC100 of 11-20 μg/ml).
For the molecule `Fc1ccc(-c2ccc(-c3nc4ccccc4[nH]3)o2)cc1` [compound 121], the “Antibacterial activity Staphylococcus aureus (MRSA)” value in data set [5] is on record as “in- active”. Also, the “Antibacterial activity Streptococcus pneumoniae” value in data set [6] was “in- active”.
With `Fc1ccc(-c2ccc(-c3nc4ccccc4[nH]3)o2)c(F)c1` [compound 122], in data set [5], the “Antibacterial activity Staphylococcus aureus (MRSA)” value is given as “in- active”. Also, the “Antibacterial activity Streptococcus pneumoniae” value in data set [6] is given as “in- active”.
As to `Cc1nc(-c2ccc(-c3cccc(O)c3)o2)[nH]c1-c1ccccc1` [compound 145], the “Antibacterial activity Streptococcus pneumoniae” value in data set [6] is 2 (MIC100 of 6-10 μg/ml). Also, in data set [7] (setting [10]), the MIC is 11 to 20 µg/mL (≈ 34.8 to 63.2 µM).
Consider `Cc1nc(-c2ccc(-c3ccccc3O)o2)[nH]c1-c1ccccc1` [compound 149], for which, in data set [7] (setting [10]), the MIC is 11 to 20 µg/mL (≈ 34.8 to 63.2 µM).
As to `Cc1nc(-c2ccc(-c3ccc(O)cc3)o2)[nH]c1-c1ccccc1` [compound 150], the “Antibacterial activity Streptococcus pneumoniae” value in data set [6] is given as 2 (MIC100 of 6-10 μg/ml). In addition, the MIC in data set [7] (setting [10]) lay within 11 to 20 µg/mL (≈ 34.8 to 63.2 µM).
For `Cc1nc(-c2ccc(-c3ccc4cc(O)ccc4c3)o2)[nH]c1-c1ccccc1` [compound 154], in data set [6], the “Antibacterial activity Streptococcus pneumoniae” value was 2 (MIC100 of 6-10 μg/ml). The MIC in data set [7] (setting [10]) lay within 11 to 20 µg/mL (≈ 30 to 54.6 µM).
